Reference: patent US20100035755A1, “METHOD OF CONTROLLING WEEDS IN A TURF GRASS BY USING SULFONYLUREA COMPOUNDS” (Moghu Research Center Ltd., priority 2008, published 2010)

Tests used:
Bentgrass = experiment: Turf grass selectivity, greenhouse pot test; format: in vivo, Agrostris palustris
Text: (§1) Turf mats of Zoysia grass, bentgrass, Kentucky bluegrass, or perennial rye grass known as cool season turfgrass or western grass were purchased and cut into a piece having 10 cm×20 cm size. Then, each piece was transplanted in a rectangular plastic pot (surface area of 300 cm^2) in which sandy loam and mixed top soil (Boo-Nong Top Soil No. 3, for horticultural use) are filled in 1:1 ratio. After the transplantation, the grasses were cut once a week to maintain the blade height at 0.5-1.0 cm and cultivated for one month in a green house of which temperature was kept at 25˜30° C. for daytime and 15˜25° C. for nighttime, respectively. Then, the ‘test chemical’ of the above Examples 1 and 2 or ‘control chemical’ was applied thereto in an amount of 400, 200, 100, 50, 25, 12, 6, 3 g ai/ha. As a “control chemical”, pyrazolsulfuron ethyl wettable agent (manufactured by Dongbu Fine Chemicals; herein after, referred to as ‘control chemical No. 1’) and flazasulfuron (manufactured by Dongbu HiTek; herein after, referred to as ‘control chemical No. 2’), both sulfonylurea herbicides for a turf grass, were used. Application was carried out by using a track sprayer (R&D Sprayer, USA) equipped with Teejet 8002 nozzle (Spraying Systems Co., USA), and the application amount was adjusted to 2,000 L/ha, which is a typical application amount for a golf course in Korea. Application solution was prepared by diluting the “test chemical” or the “control chemical” with tap water. […] The test was repeated three times in a random arrangement and the results are given in average value of each test (see Table 2 below).

Kummerowia striata = experiment: Weed spectrum, greenhouse pot test; format: in vivo; details: two weeks after application
Summary of the method: (§2)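 Seeds of each species were sown into pots filled with sandy loam and top soil (1:1) and kept in a greenhouse. Test chemical was sprayed immediately after sowing (pre-emergence) or after two weeks' growth to about three-leaf stage (post-emergence). Efficacy was judged visually after two weeks, from 0 (none) to 100.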

Poa annua = experiment: Weed spectrum, greenhouse pot test; format: in vivo; details: two weeks after application
Summary of the method: as §2

Trifolium repens = experiment: Weed spectrum, greenhouse pot test; format: in vivo; details: two weeks after application
Summary of the method: as §2

Kentucky bluegrass = experiment: Actual field condition test of Example 1 (golf course); format: in vivo, Poa pratensis; details: twenty days after application
Method: (§3) The test chemical of the Example 1 was applied to a turf grass field, in which Digitaria sanguinalis as a representative summer-time poaceae weed and Kyllinga brevifolia as a representative hard-to-control perennial cyperaceae weed are thriving predominantly, to evaluate weed control effect of the compound. The experiment was carried out from May to July, 2008 in the Dae-duk Research Park golf course (Doryong-dong, Yusong-gu, Daejon, South Korea). At the time of the chemical application, Digitaria sanguinalis was at about 4-leaf stage and Kyllinga brevifolia was at growth period.

Zoysia japonica = experiment: as above; format: in vivo; details: twenty days after application
Method: as §3

[1] = test system: every kind of turf grasses tested; experiment: Turf grass selectivity, text summary over all turf grasses; format: in vivo
Text: as §1

SMILES: Cc1cc(C)nc(NC(=O)NS(=O)(=O)c2ccccc2C(O)C(C)F)n1 (stereo not drawn) [Example 1]
- phytotoxicity (visual assessment 0-10) (Bentgrass; 3 g ai/ha, 2 weeks): 0
- phytotoxicity (visual assessment 0-10) (Bentgrass; 3 g ai/ha, 4 weeks): 0
- phytotoxicity (visual assessment 0-10) (Bentgrass; 6 g ai/ha, 2 weeks): 0
- phytotoxicity (visual assessment 0-10) (Bentgrass; 6 g ai/ha, 4 weeks): 0
- phytotoxicity (visual assessment 0-10) (Bentgrass; 12 g ai/ha, 2 weeks): 0
- phytotoxicity (visual assessment 0-10) (Bentgrass; 12 g ai/ha, 4 weeks): 0
- phytotoxicity (visual assessment 0-10) (Bentgrass; 25 g ai/ha, 2 weeks): 0
- phytotoxicity (visual assessment 0-10) (Bentgrass; 25 g ai/ha, 4 weeks): 0
- phytotoxicity (visual assessment 0-10) (Bentgrass; 50 g ai/ha, 2 weeks): 0
- phytotoxicity (visual assessment 0-10) (Bentgrass; 50 g ai/ha, 4 weeks): 0
- phytotoxicity (visual assessment 0-10) (Bentgrass; 100 g ai/ha, 2 weeks): 1
- phytotoxicity (visual assessment 0-10) (Bentgrass; 100 g ai/ha, 4 weeks): 0
- phytotoxicity (visual assessment 0-10) (Bentgrass; 200 g ai/ha, 2 weeks): 2
- phytotoxicity (visual assessment 0-10) (Bentgrass; 200 g ai/ha, 4 weeks): 1
- phytotoxicity (visual assessment 0-10) (Bentgrass; 400 g ai/ha, 2 weeks): 3
- phytotoxicity (visual assessment 0-10) (Bentgrass; 400 g ai/ha, 4 weeks): 2
- efficacy (0-100 scale) (Kummerowia striata; Post-emergence, 12 g ai/ha): 70
- efficacy (0-100 scale) (Kummerowia striata; Post-emergence, 25 g ai/ha): 70
- efficacy (0-100 scale) (Kummerowia striata; Post-emergence, 50 g ai/ha): 100
- efficacy (0-100 scale) (Kummerowia striata; Post-emergence, 100 g ai/ha): 100
- efficacy (0-100 scale) (Kummerowia striata; Pre-emergence, 12 g ai/ha): 70
- efficacy (0-100 scale) (Kummerowia striata; Pre-emergence, 25 g ai/ha): 90
- efficacy (0-100 scale) (Kummerowia striata; Pre-emergence, 50 g ai/ha): 90
- efficacy (0-100 scale) (Kummerowia striata; Pre-emergence, 100 g ai/ha): 100
- efficacy (0-100 scale) (Poa annua; Post-emergence, 12 g ai/ha): 10
- efficacy (0-100 scale) (Poa annua; Post-emergence, 25 g ai/ha): 30
- efficacy (0-100 scale) (Poa annua; Post-emergence, 50 g ai/ha): 50
- efficacy (0-100 scale) (Poa annua; Post-emergence, 100 g ai/ha): 70
- efficacy (0-100 scale) (Poa annua; Pre-emergence, 12 g ai/ha): 50
- efficacy (0-100 scale) (Poa annua; Pre-emergence, 25 g ai/ha): 60
- efficacy (0-100 scale) (Poa annua; Pre-emergence, 50 g ai/ha): 70
- efficacy (0-100 scale) (Poa annua; Pre-emergence, 100 g ai/ha): 80
- efficacy (0-100 scale) (Trifolium repens; Post-emergence, 12 g ai/ha): 40
- efficacy (0-100 scale) (Trifolium repens; Post-emergence, 25 g ai/ha): 50
- efficacy (0-100 scale) (Trifolium repens; Post-emergence, 50 g ai/ha): 60
- efficacy (0-100 scale) (Trifolium repens; Post-emergence, 100 g ai/ha): 60
- efficacy (0-100 scale) (Trifolium repens; Pre-emergence, 12 g ai/ha): 30
- efficacy (0-100 scale) (Trifolium repens; Pre-emergence, 25 g ai/ha): 50
- efficacy (0-100 scale) (Trifolium repens; Pre-emergence, 50 g ai/ha): 70
- efficacy (0-100 scale) (Trifolium repens; Pre-emergence, 100 g ai/ha): 70
- phytotoxicity in actual field condition (Kentucky bluegrass; 50 g ai/ha): 0
- phytotoxicity in actual field condition (Kentucky bluegrass; 100 g ai/ha): 0
- phytotoxicity in actual field condition (Zoysia japonica; 50 g ai/ha): 0
- phytotoxicity in actual field condition (Zoysia japonica; 100 g ai/ha): 0
- phytotoxicity to a turf grass ([1]; 100 g ai/ha): no phytotoxicity at all
- phytotoxicity to a turf grass ([1]; 400 g ai/ha): only minor phytotoxicity
- phytotoxicity to turf grasses ([1]; 400 or 200 g ai/ha): only minor phytotoxicity
- safety to turf grasses ([1]; every kind of turf grasses tested, 100 g ai/ha or less): excellent safety
